Literature values in patent publication US20170327462A1, “(Z)-3,4,5-TRIMETHOXYSTYRYLBENZENESULFONAMIDES AS POTENTIAL ANTICANCER AGENTS” (COUNCIL OF SCIENTIFIC & INDUSTRIAL RESEARCH, priority 2014, published 2017).

Test system: tubulin
Conditions: binding at colchicine binding site; J. Med. Chem. 2008, 51, 6211; cited from earlier work

For `COc1cc(/C=C\c2ccc(OC)c(N)c2)cc(OC)c1` [(Z)-5-(3,5-dimethoxystyryl)-2-methoxyaniline], the “inhibition of tubulin polymerization relative to CA-4” value is given as “five times stronger than CA-4”.
